# Laboratory results taken from the supplement of paper PMC10883282.
# Legend:
# Assay in all cases: standardised AUC of viability dose-response curve (72 h) (fraction (0-1)); higher = less growth inhibition (more resistant)
# HT1080 = system: HT1080
# How it was run: (§1)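 Sarcoma cell lines in 384-well plates were treated in triplicate for 72 h with 2.5 µl of compound dilution series (compound-plate series 10 mM to 0.0002 mM, 1:3 steps). ATPLite viability was scaled 1 (full) to 0 (none) and fitted per drug and cell line with a four-parameter log-logistic model. The standardised area under the dose-response curve in log-dose space (modified drexplorer computeAUC) runs from 1 (no response) to 0 (full response).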
# SW872 = system: SW872
# How it was run: as §1
# G401 = system: G401
# How it was run: as §1
# SW684 = system: SW684
# How it was run: as §1
# RD-ES = system: RD-ES
# How it was run: as §1
# SK-LMS-1 = system: SK-LMS-1
# How it was run: as §1
# SW982 = system: SW982
# How it was run: as §1
# KHOS-NP = system: KHOS-NP
# How it was run: as §1
# VA-ES-BJ = system: VA-ES-BJ
# How it was run: as §1
# A204 = system: A204
# How it was run: as §1
# HS729 = system: HS729
# How it was run: as §1
# MES-SA = system: MES-SA
# How it was run: as §1
# SW1353 = system: SW1353
# How it was run: as §1
# RD = system: RD
# How it was run: as §1
# SYO-1 = system: SYO-1
# How it was run: as §1
# KHOS-240S = system: KHOS-240S
# How it was run: as §1
# SK-ES-1 = system: SK-ES-1
# How it was run: as §1
Structure (SMILES),standardised AUC (HT1080),standardised AUC (SW872),standardised AUC (G401),standardised AUC (SW684),standardised AUC (RD-ES),standardised AUC (SK-LMS-1),standardised AUC (SW982),standardised AUC (KHOS-NP),standardised AUC (VA-ES-BJ),standardised AUC (A204),standardised AUC (HS729),standardised AUC (MES-SA),standardised AUC (SW1353),standardised AUC (RD),standardised AUC (SYO-1),standardised AUC (KHOS-240S),standardised AUC (SK-ES-1)
CCCS(=O)(=O)N[C@H]1C[C@@H](N(C)c2ncnc3[nH]ccc23)C1 [ABROCITINIB],1,0.991,0.985,0.989,1,0.997,0.997,0.994,1,0.984,0.982,0.996,1,0.995,1,0.989,0.985
COc1cc2c(Oc3ccc4[nH]c(C)cc4c3F)ccnc2cc1OCC1(N)CC1 [ANLOTINIB],0.965,0.936,0.872,0.944,0.914,0.868,0.904,0.93,0.941,0.708,0.909,0.876,0.909,0.903,0.736,0.883,0.851
CCN(CCCOc1ccc2c(Nc3cc(CC(=O)Nc4cccc(F)c4)[nH]n3)ncnc2c1)CCOP(=O)(O)O [BARASERTIB],0.925,0.94,0.869,0.972,0.5,0.938,0.745,1,0.8,0.816,0.928,0.685,0.915,0.826,0.581,0.856,0.4
COc1cc(Nc2c(C#N)cnc3cc(OCCCN4CCN(C)CC4)c(OC)cc23)c(Cl)cc1Cl [BOSUTINIB],0.917,0.848,0.932,0.883,0.856,0.932,0.795,0.87,0.85,0.93,0.906,0.861,0.895,0.895,0.909,0.851,0.78
COc1cc2nccc(Oc3ccc(NC(=O)C4(C(=O)Nc5ccc(F)cc5)CC4)cc3)c2cc1OC [CABOZANTINIB],0.965,0.908,0.856,0.827,0.919,0.661,0.916,0.96,0.913,0.656,0.809,0.871,0.855,0.95,0.714,0.923,0.89
Cc1cc(Nc2ncc(Cl)c(Nc3ccccc3S(=O)(=O)C(C)C)n2)c(OC(C)C)cc1C1CCNCC1 [CERITINIB],0.918,0.901,0.833,0.923,0.784,0.924,0.827,0.933,0.933,0.87,0.889,0.916,0.865,0.81,0.884,0.874,0.751
C[C@@H](Oc1cc(-c2cnn(C3CCNCC3)c2)cnc1N)c1c(Cl)ccc(F)c1Cl [CRIZOTINIB],0.919,0.834,0.859,0.901,0.758,0.717,0.74,0.944,0.817,0.877,0.879,0.765,0.915,0.824,0.745,0.873,0.72
COc1cc2ncnc(Nc3ccc(F)c(Cl)c3)c2cc1NC(=O)/C=C/CN1CCCCC1 [DACOMITINIB],0.916,0.87,0.89,0.888,0.879,0.91,0.814,0.939,0.893,0.842,0.907,0.858,0.804,0.869,0.856,0.896,0.824
Cc1nc(Nc2ncc(C(=O)Nc3c(C)cccc3Cl)s2)cc(N2CCN(CCO)CC2)n1 [DASATINIB],0.941,0.716,0.86,0.767,0.949,0.78,0.607,0.725,0.651,0.612,0.774,0.949,0.712,0.658,0.736,0.617,0.907
COc1cc(OC)cc(N(CCNC(C)C)c2ccc3ncc(-c4cnn(C)c4)nc3c2)c1 [ERDAFITINIB],0.964,0.856,0.604,0.924,0.891,0.91,0.816,0.971,0.912,0.555,0.685,0.796,0.868,0.924,0.581,0.773,0.818
C#Cc1cccc(Nc2ncnc3cc(OCCOC)c(OCCOC)cc23)c1 [ERLOTINIB],0.992,0.946,0.982,0.992,0.983,0.968,0.927,0.994,0.955,0.943,0.956,0.941,0.926,0.984,0.978,0.994,0.893
